This is an account of results in US20130046098A1, “KINASE INHIBITORS” (THE UNIVERSITY OF MANCHESTER, priority 2009, published 2013).

Series [1] deals with polyclonal Ras transformed NIH3T3 cells. The series can be described thus: Co-culture of Ras transformed cells with non-transformed cells / Ras colony formation. Type of series: cell-based, mouse. Here is the method: FIG. 5 illustrates that the growth suppressive effects of YA1 on single transformed colony derived GEF16 NIH3T3 cells and polyclonal Ras transformed NIH3T3 cells are more pronounced when these are co-cultured with non-transformed cells. In FIG. 5A single transformed colonies were picked from 10 day cultures of GEF16 polyclonal NIH3T3 cells and expanded. These cells were then seeded at 2.0×10^5 cells per 30 mm dish and treated with 10 μM of YA1 or DMSO control either immediately or following 10 days in culture. Duplicate wells were harvested for flow cytometry. In FIG. 5B a total of 2×10^5 cells per well were plated consisting of increasing numbers of non-transformed vector cells co-cultured with decreasing numbers of single transformed colony derived GEF16 cells. These were treated with 10 μM of either YA1 or DMSO for 10 days. […]
Transformed cell populations were produced by transfection with constructs causing cellular expression of GEF16 or Ras as follows. The full-length GEF16 open reading frame (Accession NM_014448) was PCR amplified, sequence verified and subcloned into the mammalian expression vector pCMVTag (Invitrogen Ltd., Paisley, UK) to produce a construct pCMVTag-GEF16 cDNA. […]

For another series, the target named is ROCK2 (Homo sapiens, UniProt O75116). The series can be described thus: SelectScreen additional single point analysis. The conditions noted are these: 10 μM.
The target of a further series is T1, Aurora A (Homo sapiens, UniProt O14965).
T1 sequence (O14965 1-403): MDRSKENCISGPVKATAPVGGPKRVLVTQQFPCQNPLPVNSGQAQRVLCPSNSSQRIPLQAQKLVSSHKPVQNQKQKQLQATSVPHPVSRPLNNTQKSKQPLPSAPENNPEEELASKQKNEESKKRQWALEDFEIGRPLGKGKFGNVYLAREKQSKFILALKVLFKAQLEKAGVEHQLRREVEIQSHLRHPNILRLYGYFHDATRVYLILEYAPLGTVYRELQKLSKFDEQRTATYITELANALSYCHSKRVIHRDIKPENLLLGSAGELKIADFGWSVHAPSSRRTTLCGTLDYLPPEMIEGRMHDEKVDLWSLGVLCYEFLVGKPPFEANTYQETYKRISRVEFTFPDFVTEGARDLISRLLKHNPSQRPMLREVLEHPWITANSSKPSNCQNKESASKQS
In words: SelectScreen in vitro kinase profiling, single point.

Another series deals with recombinant ROCK. The series can be described thus: In vitro ROCK activity assay (Cyclex Rho-kinase immunoassay). As to conditions: FIG. 2A bar chart. Type of series: biochemical. Here is the method:
A specific assay was used to evaluate the ability of the compounds of the invention to inhibit ROCK. Rho-kinase activity was determined using an immunoassay as recommended by the manufacturer (Cyclex Co., Ltd., Nagano, Japan). Briefly, […] samples containing 10 mUnit (1 Unit incorporates 1 nmol of phosphate into GST-MBS/MYPT1 per minute at 30° C.) of recombinant ROCK with or without the compounds of the invention were aliquoted into a 96-well plate (100 μl/well), pre-coated with threonine Rho-kinase phosphorylation substrate. After 30 min incubation at 30° C., the plate was washed three times with PBS then incubated with 100 μl/well of HRP conjugated anti-phospho-specific antibody for 1 h at room temperature. The amount of phosphorylated substrate was determined by adding 100 μl/well of substrate reagent for 10 min and the reaction was terminated by adding 100 μl/well of the stop solution. The absorbance was measured on a 96-well plate reader at 450 nm (Dynex Technologies, West Sussex, UK). Each data point was performed in triplicate and the assay was repeated twice.

Series [2] concerns GEF16 transformed NIH3T3 cells. The series can be described thus: Flow cytometry of DNA content (cell cycle, sub G1). The series is classed as cell-based, mouse. The procedure:
NIH3T3 cells with or without drug treatments (with Y27632 or the compounds of the invention) were harvested at various time points and cell counts carried out to confirm that 1×10^6 cells were present for each cytometric analysis. Cells were washed with PBS, fixed with 70% ice-cold ethanol, pelleted and DNA stained by incubating the cells with propidium iodide ([…]) (Sigma-Aldrich, Poole, UK) at 4° C. for 45 min. Cells were then washed twice with ice-cold PBS and resuspended in 400 μl of PBS. The DNA content during different phases of the cell cycle was then determined by flow cytometry (BD Biosciences, Oxford, UK). Each profile shown was representative of three separate experiments.
On the technique in general: A flow cytometer gives signals particle by particle.

Another series concerns the target ROCK1 (Homo sapiens, UniProt Q13464). The series can be described thus: SelectScreen additional single point analysis. As to conditions: 10 μM.
The next series has as its target p38 alpha (MAPK14) (Homo sapiens, UniProt Q16539). The series can be described thus: SelectScreen in vitro kinase profiling, single point.
The next series has as its system ROCK. In words: SelectScreen 40 kinase panel. The series is classed as biochemical, human. The conditions noted are these: 10 μM, Km ATP. An excerpt: The SelectScreen™ kinase inhibitor assay service was used (Invitrogen Ltd., Paisley, UK) to investigate the ability of the compounds of the invention to inhibit a large number of different kinases. This commercially provided service allows assessment of the ability of a compound (or compounds) of interest to inhibit a broad panel of human kinases. Further details regarding this service are available on the Invitrogen website at:
In the present study YA1 (a compound in accordance with formula (V)) was investigated for its ability to inhibit the activity of the 40 kinases shown in panel B of FIG. 2. The compounds of the invention were diluted in DMSO at a concentration of 10 mM and single-point kinase inhibitory activities were measured at 10 μM and Km ATP concentration.

Where [3] appears, read: additional single point analysis, 10 μM.

“Also recorded” adds a separate entry of the source.

Chain of p38 alpha (MAPK14) (Q16539 whole entry): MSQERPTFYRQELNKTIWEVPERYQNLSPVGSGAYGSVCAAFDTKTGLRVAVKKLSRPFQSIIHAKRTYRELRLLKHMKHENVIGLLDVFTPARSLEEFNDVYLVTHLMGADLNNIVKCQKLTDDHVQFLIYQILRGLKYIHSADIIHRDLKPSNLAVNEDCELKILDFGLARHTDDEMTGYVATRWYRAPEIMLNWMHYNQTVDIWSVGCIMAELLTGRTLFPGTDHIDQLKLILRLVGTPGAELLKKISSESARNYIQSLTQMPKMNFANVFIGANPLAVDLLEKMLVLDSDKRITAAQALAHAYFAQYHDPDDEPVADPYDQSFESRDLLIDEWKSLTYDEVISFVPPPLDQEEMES
Chain of ROCK2 (O75116 whole entry): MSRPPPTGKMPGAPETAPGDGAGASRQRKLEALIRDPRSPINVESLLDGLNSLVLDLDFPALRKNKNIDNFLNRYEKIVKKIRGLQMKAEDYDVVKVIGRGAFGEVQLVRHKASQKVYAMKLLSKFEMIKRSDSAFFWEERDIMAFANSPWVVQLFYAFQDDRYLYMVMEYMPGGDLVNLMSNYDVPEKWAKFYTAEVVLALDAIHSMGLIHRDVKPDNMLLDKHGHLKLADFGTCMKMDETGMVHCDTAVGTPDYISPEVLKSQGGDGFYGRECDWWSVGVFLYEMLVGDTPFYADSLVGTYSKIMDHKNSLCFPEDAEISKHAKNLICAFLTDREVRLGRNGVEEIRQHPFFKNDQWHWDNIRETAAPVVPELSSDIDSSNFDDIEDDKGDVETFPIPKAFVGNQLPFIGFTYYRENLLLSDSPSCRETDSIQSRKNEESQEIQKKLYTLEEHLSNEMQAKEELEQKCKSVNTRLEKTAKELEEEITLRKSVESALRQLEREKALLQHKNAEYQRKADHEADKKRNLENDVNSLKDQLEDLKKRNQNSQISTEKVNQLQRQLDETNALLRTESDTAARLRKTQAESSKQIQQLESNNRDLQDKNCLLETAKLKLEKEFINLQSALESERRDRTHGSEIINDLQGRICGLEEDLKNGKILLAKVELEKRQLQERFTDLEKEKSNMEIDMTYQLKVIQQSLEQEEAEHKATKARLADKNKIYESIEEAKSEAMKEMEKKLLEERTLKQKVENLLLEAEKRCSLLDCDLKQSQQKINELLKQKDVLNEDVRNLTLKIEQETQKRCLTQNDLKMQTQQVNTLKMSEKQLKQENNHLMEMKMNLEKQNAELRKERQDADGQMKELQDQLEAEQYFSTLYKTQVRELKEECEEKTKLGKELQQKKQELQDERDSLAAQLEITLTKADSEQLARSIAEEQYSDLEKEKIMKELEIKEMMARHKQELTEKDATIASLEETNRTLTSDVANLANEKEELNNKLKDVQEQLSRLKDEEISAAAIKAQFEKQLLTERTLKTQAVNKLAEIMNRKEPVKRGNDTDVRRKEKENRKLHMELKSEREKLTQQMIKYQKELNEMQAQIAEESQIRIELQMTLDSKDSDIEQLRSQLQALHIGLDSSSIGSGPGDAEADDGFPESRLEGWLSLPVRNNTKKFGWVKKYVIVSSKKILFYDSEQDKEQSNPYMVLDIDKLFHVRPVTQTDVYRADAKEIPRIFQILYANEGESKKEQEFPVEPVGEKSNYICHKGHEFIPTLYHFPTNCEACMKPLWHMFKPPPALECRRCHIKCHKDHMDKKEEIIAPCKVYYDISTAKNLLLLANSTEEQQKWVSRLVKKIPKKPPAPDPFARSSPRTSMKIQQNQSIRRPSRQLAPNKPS
Chain of ROCK1 (Q13464 whole entry): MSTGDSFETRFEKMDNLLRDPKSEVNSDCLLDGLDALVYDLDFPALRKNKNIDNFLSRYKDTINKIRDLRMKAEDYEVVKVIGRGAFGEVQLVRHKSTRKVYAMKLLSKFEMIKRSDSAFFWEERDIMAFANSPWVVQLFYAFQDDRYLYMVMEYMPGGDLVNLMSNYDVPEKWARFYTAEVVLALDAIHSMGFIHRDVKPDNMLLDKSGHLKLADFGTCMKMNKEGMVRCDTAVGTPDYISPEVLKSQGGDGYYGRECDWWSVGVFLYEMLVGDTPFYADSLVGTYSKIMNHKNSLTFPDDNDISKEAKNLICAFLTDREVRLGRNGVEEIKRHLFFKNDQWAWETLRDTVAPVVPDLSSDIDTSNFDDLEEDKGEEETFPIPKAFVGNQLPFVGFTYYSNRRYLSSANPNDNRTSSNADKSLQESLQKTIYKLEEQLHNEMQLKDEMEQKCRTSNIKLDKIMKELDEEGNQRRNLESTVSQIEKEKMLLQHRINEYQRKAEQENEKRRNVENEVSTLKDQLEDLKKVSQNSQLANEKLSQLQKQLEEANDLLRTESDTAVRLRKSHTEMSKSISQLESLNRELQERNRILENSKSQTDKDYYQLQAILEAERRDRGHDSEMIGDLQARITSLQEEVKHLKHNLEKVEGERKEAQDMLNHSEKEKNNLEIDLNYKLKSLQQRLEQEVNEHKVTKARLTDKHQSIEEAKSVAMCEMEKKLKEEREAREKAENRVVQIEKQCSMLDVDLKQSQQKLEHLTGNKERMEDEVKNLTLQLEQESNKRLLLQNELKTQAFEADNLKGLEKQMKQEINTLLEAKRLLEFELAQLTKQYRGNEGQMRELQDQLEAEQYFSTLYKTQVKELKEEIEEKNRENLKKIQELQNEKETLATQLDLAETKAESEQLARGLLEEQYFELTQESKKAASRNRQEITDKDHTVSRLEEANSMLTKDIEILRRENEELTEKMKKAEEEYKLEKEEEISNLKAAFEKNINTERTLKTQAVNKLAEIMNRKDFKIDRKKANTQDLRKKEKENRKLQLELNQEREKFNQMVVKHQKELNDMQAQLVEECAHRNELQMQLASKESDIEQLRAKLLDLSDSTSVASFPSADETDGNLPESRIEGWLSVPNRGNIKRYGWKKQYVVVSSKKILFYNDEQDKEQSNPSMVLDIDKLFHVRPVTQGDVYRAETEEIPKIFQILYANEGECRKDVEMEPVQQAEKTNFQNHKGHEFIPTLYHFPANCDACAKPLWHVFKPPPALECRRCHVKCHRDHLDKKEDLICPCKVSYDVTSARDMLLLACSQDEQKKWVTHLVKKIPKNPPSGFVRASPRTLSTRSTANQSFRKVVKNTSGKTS

`CC(C)(C)OC(=O)NCc1ccc(C(=O)Nc2ccncc2)cc1` [YA1, 4-(Pyridin-4-ylcarbamoyl)benzylcarbamic acid tert-butyl ester]: the “growth suppression / colony formation of Ras transformed NIH3T3 cells” value in series [1] (10 μM, 10 days, co-culture with non-transformed cells) is “same growth suppressive effects on Ras transformed NIH3T3 cell colonies as with GEF16 transformed cells; also recorded: highly effective at preventing the formation of Ras transformed NIH3T3 colonies”. Further, the “contact inhibition and polarity of Ras transformed cells (phase contrast images)” value in series [1] (YA1 treated) is “regain both contact inhibition and polarity”. Moreover, at ROCK2, the “activity against ROCK2” value was “less activity against ROCKs than YA2”. For the same compound, the “activity against Aurora A” value on Aurora A (setting [3]) is “significant activity against p38, HGK and Aurora A”. Further, the inhibition at 10 µM was 44% on Aurora A (read-out: inhibitory activity against Aurora A) and 72% on p38 alpha (MAPK14) (read-out: inhibitory activity against p38 alpha (MAPK14)). In the series on recombinant ROCK, the “ROCK inhibitory activity compared to Y27632” value is reported as “lower ROCK inhibitory activity; also recorded: significantly less activity against ROCK than did their structural analogue Y27632”. Also, the “cell cycle / apoptotic sub G1 population” value was “no evidence of alterations in cell cycle or the accumulation of an apoptotic sub G1 population” in series [2] (polyclonal GEF16 cells, 10 μM, FIG. 3C); “no effect on the cell cycle and no apoptotic sub G1 population is seen” in series [2] (single colony derived GEF16 cells, treated pre or post confluence). Also, the “activity against ROCK1” value on ROCK1 was “less activity against ROCKs than YA2”. Further, the “activity against p38” value on p38 alpha (MAPK14) (setting [3]) is “significant activity against p38, HGK and Aurora A”. In addition, the ROCK inhibitory activity with ROCK is on record as ~40%.
